In article PMC10117049, “RND Pump-Mediated Efflux of Amotosalen, a Compound Used in Pathogen Inactivation Technology to Enhance Safety of Blood Transfusion Products, May Compromise Its Gram-Negative Anti-Bacterial Activity” (mSphere, 2023):
Like-named read-outs stand apart in the source and are kept apart here.

Key:
AdeB = AdeB (Acinetobacter baumannii, UniProt Q2FD70); experiment: fluorescence polarization titration using the inherent fluorescence of amotosalen ([…]); format: binding
A. baumannii = experiment: microbe, parasite or virus in culture; parameters: Broth microdilution MIC in 384-well plates after UVA exposure (2 J/cm2), A600 growth read-out; settings: Acinetobacter baumannii, 20 h, MDRb=Yes, UVA 365 nm, 2 J/cm2, modal MIC of three or more replicates
Procedure: (§1) For MIC determination, bacterial stocks frozen at −80°C were streaked onto tryptic soy agar plates containing 5% sheep blood (Remel), and grown overnight at 35°C in ambient air. Colonies were then suspended in 0.9% saline to 0.5 McFarland, measured using a Densicheck (bioMérieux); diluted 1:300 in cation-adjusted Mueller-Hinton broth (BD); and dispensed into 384-well polystyrene plates (Greiner Bio-One) at 50 μL per well with the following exceptions: For MIC determinations with AG100AX strains containing pAdeC and pAdeAB plasmids, −80°C frozen stocks were inoculated directly into non-cation-adjusted Mueller-Hinton broth containing 100 μg/mL ampicillin, 50 μg/mL nourseothricin, 5 mM calcium chloride, and 5 mM magnesium chloride, with or without adeABC induction using 1% L-arabinose and 1.0 mM Isopropyl β-D-1-thiogalactopyranoside (IPTG), and grown overnight at 37°C in 15 mL conical tubes with continual rotation. Bacterial cultures were then adjusted to 0.5 McFarland and diluted 1:300 in the same medium, and dispensed as above. Induction of other cloned efflux pumps was with 1% L-arabinose (or 0.5% L-arabinose for cloned P. aeruginosa pumps) in the absence of supplemental divalent cations. Lastly, P. aeruginosa PAO1 strains were dispensed into 96-well plates to avoid skipped-well effects observed in 384-well plate format. Filled microplates were centrifuged at 1250 rcf for 4 min to ensure the entire inoculum was in continuity with the bottom of the well. Then, 2-fold doubling dilutions of stock solutions of amotosalen, AMT, or 8-MOP supplemented with 0.3% Tween 20 (Sigma-Aldrich) were dispensed into microwells using the HP D300 digital dispensing system (HP, Inc.), as previously described ([87][–][90]), and the microplates were mixed for 5 min on a microplate shaker to ensure complete mixing of psoralens with the inoculum. Microplates were then exposed to UV light in a UV Stratalinker 1800 (Stratagene), retrofitted with UV BL F8T5 CFL 12-inch UVA 365 nm Blacklight Bulbs (Coolspider), and calibrated according to manufacturer’s instructions with an UVA365 UV Light Meter (Amtast) for a total exposure of 2 Joules/cm^2 of UVA, to approximate exposure during platelet pathogen inactivation ([10]). Testing of control antibiotics was performed in an identical fashion, however, without UVA exposure. After incubation at 35°C for 20 h, the A600 was measured using a TECAN M1000 microplate reader. MICs were determined based on a growth inhibition A600 cutoff of 0.06, which is consistent with our prior determinations of Clinical and Laboratory Standards Institute reference standard equivalent, MIC determinations in 384-well plate format ([88], [90], [91]). […] The concentrations of MgCl2 and CaCl2 used were empirically determined previously to be optimal for efflux of minocycline and ethidium bromide (data not shown).

Burkholderia cenocepacia = experiment: microbe, parasite or virus in culture; parameters: Broth microdilution MIC in 384-well plates after UVA exposure (2 J/cm2), A600 growth read-out; settings: Burkholderia cenocepacia, 20 h, MDRb=Unknown, UVA 365 nm, 2 J/cm2, modal MIC of three or more replicates
Procedure: as §1

Burkholderia cepacia = experiment: microbe, parasite or virus in culture; parameters: Broth microdilution MIC in 384-well plates after UVA exposure (2 J/cm2), A600 growth read-out; settings: Burkholderia cepacia, 20 h, read-out: Amotosalen Modal MIC (mM)a, Strain #=BEI NR-702; MDRb=Unknown; UVA 365 nm, 2 J/cm2; modal MIC of three or more replicates
Procedure: as §1

Burkholderia multivorans = experiment: microbe, parasite or virus in culture; parameters: Broth microdilution MIC in 384-well plates after UVA exposure (2 J/cm2), A600 growth read-out; settings: Burkholderia multivorans, 20 h, read-out: Amotosalen Modal MIC (mM)a, Strain #=BEI NR-20533; MDRb=Unknown; UVA 365 nm, 2 J/cm2; modal MIC of three or more replicates
Procedure: as §1

E. coli = experiment: microbe, parasite or virus in culture; parameters: Broth microdilution MIC in 384-well plates after UVA exposure (2 J/cm2), A600 growth read-out; settings: Escherichia coli, 20 h, UVA 365 nm, 2 J/cm2, modal MIC of three or more replicates
Procedure: as §1

K. pneumoniae = experiment: microbe, parasite or virus in culture; parameters: Broth microdilution MIC in 384-well plates after UVA exposure (2 J/cm2), A600 growth read-out; settings: Klebsiella pneumoniae, 20 h, MDRb=Yes, UVA 365 nm, 2 J/cm2, modal MIC of three or more replicates
Procedure: as §1

P. aeruginosa = experiment: microbe, parasite or virus in culture; parameters: Broth microdilution MIC in 384-well plates after UVA exposure (2 J/cm2), A600 growth read-out; settings: Pseudomonas aeruginosa, 20 h, UVA 365 nm, 2 J/cm2, modal MIC of three or more replicates
Procedure: as §1

[1] = test system: Stenotrophomonas maltophilia; experiment: microbe, parasite or virus in culture; parameters: Broth microdilution MIC in 384-well plates after UVA exposure (2 J/cm2), A600 growth read-out; settings: Stenotrophomonas maltophilia, 20 h, UVA 365 nm, 2 J/cm2, modal MIC of three or more replicates
Procedure: as §1

Sequence of AdeB (Q2FD70 entry or part of it): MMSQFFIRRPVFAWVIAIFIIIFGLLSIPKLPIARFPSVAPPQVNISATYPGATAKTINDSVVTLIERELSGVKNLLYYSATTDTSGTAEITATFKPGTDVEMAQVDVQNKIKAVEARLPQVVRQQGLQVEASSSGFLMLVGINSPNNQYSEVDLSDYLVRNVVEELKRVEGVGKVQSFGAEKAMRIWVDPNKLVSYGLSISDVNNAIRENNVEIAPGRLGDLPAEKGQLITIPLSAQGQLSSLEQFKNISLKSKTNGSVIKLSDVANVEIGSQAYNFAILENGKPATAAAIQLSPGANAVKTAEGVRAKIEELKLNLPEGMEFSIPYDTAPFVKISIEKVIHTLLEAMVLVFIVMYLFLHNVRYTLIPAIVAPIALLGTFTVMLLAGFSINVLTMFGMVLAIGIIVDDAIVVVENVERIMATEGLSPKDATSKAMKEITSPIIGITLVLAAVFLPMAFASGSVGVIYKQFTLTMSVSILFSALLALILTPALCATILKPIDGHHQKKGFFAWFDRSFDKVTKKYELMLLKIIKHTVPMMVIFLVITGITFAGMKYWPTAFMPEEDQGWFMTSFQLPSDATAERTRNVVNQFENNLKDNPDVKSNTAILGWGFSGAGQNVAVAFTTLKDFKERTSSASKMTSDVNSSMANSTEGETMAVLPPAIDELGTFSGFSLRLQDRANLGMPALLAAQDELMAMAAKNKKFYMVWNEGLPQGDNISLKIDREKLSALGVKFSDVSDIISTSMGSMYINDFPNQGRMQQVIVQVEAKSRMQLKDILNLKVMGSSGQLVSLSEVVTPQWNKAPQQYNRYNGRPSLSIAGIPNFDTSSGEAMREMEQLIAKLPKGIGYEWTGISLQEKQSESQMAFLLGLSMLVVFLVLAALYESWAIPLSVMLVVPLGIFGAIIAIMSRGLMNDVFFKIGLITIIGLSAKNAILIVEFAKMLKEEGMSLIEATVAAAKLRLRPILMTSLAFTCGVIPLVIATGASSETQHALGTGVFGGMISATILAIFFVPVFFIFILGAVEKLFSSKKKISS

**Q.** How did the Kd (AdeB) turn out when `Cc1oc2c(C)c3oc(=O)cc(C)c3cc2c1COCCN` [amotosalen, 4′-(4-amino-2-oxa)butyl-4,5′,8-trimethylpsoralen] was run?
**A.** 27.9 ± 1.8 µM

**Q.** And the MIC (A. baumannii; read-out: Amotosalen Modal MIC (mM)a, Strain #=FDA-CDC 0292)?
**A.** 0.064 mM

**Q.** And the MIC (A. baumannii; read-out: Amotosalen Modal MIC (mM)a, Strain #=WRAIR 15067)?
**A.** 0.128 mM

**Q.** What about the MIC (Burkholderia cenocepacia; read-out: Amotosalen Modal MIC (mM)a, Strain #=BEI NR-701) of the same compound?
**A.** 0.128 mM

**Q.** And the MIC (Burkholderia cenocepacia; read-out: Amotosalen Modal MIC (mM)a, Strain #=BEI NR-20535)?
**A.** 0.256 mM

**Q.** And the MIC (Burkholderia cepacia)?
**A.** > 0.256 mM

**Q.** What about the MIC (Burkholderia multivorans) of the same compound?
**A.** > 0.256 mM

**Q.** And the MIC (E. coli; read-out: Amotosalen Modal MIC (mM)a, Strain #=ATCC 25922e, MDRb=No)?
**A.** 0.008 mM

**Q.** And the MIC (E. coli; read-out: Amotosalen Modal MIC (mM)a, Strain #=FDA-CDC 0114, MDRb=Yes)?
**A.** 0.128 mM

**Q.** And the MIC (E. coli; read-out: Amotosalen Modal MIC (mM)a, Strain #=FDA-CDC 0118, MDRb=Yes)?
**A.** 0.064 mM

**Q.** And the MIC (K. pneumoniae; read-out: Amotosalen Modal MIC (mM)a, Strain #=FDA-CDC 0113)?
**A.** 0.128 mM

**Q.** What about the MIC (K. pneumoniae; read-out: Amotosalen Modal MIC (mM)a, Strain #=FDA-CDC 0146) of the same compound?
**A.** 0.256 mM

**Q.** And the MIC (P. aeruginosa; read-out: Amotosalen Modal MIC (mM)a, Strain #=ATCC 27583e, MDRb=No)?
**A.** < 0.004 mM

**Q.** What about the MIC (P. aeruginosa; read-out: Amotosalen Modal MIC (mM)a, Strain #=FDA-CDC 229, MDRb=Yes) of the same compound?
**A.** > 0.256 mM

**Q.** And the MIC (P. aeruginosa; read-out: Amotosalen Modal MIC (mM)a, Strain #=FDA-CDC 230, MDRb=Yes)?
**A.** 0.128 mM

**Q.** What about the MIC (P. aeruginosa; read-out: Amotosalen Modal MIC (mM)a, Strain #=FDA-CDC 232, MDRb=Yes) of the same compound?
**A.** 0.256 mM

**Q.** And the MIC ([1]; read-out: Amotosalen Modal MIC (mM)a, Strain #=JEK154)?
**A.** 0.256 mM

**Q.** And the MIC ([1]; read-out: Amotosalen Modal MIC (mM)a, Strain #=JEK155)?
**A.** 0.064 mM
